From patent US7820803B2, “Immobilized phosphatidic acid probe” (priority 2000, dated 2010)
One block for each compound: values may come before it.

What was measured:
[1] = target: T1, α-tocopherol-transfer protein (ATTP) (Homo sapiens, UniProt P49638); experiment: Recombinant protein binding to derivatised beads: inhibition by free phosphoinositides (FIG. 11); conditions: all lipids at one concentration, relative affinity
T1 construct: His (N); made in house; host or cells: E. coli
T1 sequence (P49638 1-278): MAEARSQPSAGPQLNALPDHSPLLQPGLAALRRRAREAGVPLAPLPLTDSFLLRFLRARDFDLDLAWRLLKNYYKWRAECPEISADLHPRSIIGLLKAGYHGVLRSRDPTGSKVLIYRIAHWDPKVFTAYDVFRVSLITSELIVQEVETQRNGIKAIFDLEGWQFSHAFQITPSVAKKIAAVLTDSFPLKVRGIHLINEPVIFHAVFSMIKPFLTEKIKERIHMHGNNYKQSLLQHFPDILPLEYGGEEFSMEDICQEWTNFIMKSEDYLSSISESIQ
Text: (§1) FIG. 11. Protein binding to derivatised beads: inhibition by free phosphoinositides. Recombinant proteins (in Cos cell lysates or expressed and purified) were bound to PtdIns(3,4,5)P3 or PtdIns(3,4)P2 beads in the presence of various free phosphoinositides (for details, see Methods). For PIP3-E, a full length construct was expressed in Cos cells while a truncated version (residues 40-437) was purified from E.Coli. […] Unless otherwise indicated, the first lane was loaded with a sample equivalent to 1% (Cos cell lysates) or 10% (purified recombinant proteins) of the protein sample that was incubated with beads. As appropriate, tagged proteins were detected with antibodies (anti-myc, anti-GFP, anti-HIS, or anti-EE; see Methods) or by silver-staining (PIP3-G/H-EE, EE-myosin 1F, GST-cytohesin-4, DAPP1, PIP3-E, MEG-2 and CDC42-GAP). For each protein, the data shown are representative of information collected in 4 independent experiments. […]
(§2) Samples of the supernatants were diluted up to 4-fold in lysis buffer, depending on expression levels, and mixed with indicated concentrations of phosphoinositide in 1 ml (FIG. 11) for 10 min on ice. […] Proteins were eluted with SDS sample buffer, separated by SDS-PAGE and detected by immunoblotting [anti-myc (monoclonal 9E10) or anti-GFP (rabbit polyclonal): Clontech). […]

[2] = Solubility of ω-amino phosphatidic acid in solvents; format: physicochemical; conditions: in a range of solvents; chloroform-methanol-water needed
Protocol: The immobilised PA [1] was prepared by coupling of the ω-amino phosphatidic acid (−), which was synthesised in 7 steps starting from the optically pure protected glycerol derivative (−), with the N-hydroxysuccinimide (NHS) activated ester agarose resin, Affi-Gel 10, as is depicted in Scheme 1. […] Excess resin (ca. 5 equiv. of NHS-groups) was used, resulting in a loading of 80% [2] onto the beads, as determined by the quantification of recovered by 1H-NMR in the presence of an internal standard.
Finally, the PA amine 33 and PtdIns(4,5)P2 amine 34 were coupled to the N-hydroxysuccinimide (NHS)-activated ester resin, Affi-Gel 10, to afford the corresponding affinity matrices 31 and 32. The PtdIns(4,5)P2 modified matrix was prepared in water using excess NaHCO3, by reacting the activated Affi Gel 10 [resin […] (4 mL)] with the amine 34 ([…]) to give a loading of 4.5 mmol as judged from the recovery of the amino phospholipid 34, that was quantified by 500 MHz ^1H-NMR spectroscopy in the presence of myo-inositol orthoformate 43 as the internal standard.

SR1 = target: T2, SR1 (Homo sapiens, UniProt Q8IWB7); experiment: Recombinant protein binding to derivatised beads: inhibition by free phosphoinositides (FIG. 11); conditions: all lipids at one concentration, relative affinity
T2 construct: Multiple overlapping clones allowed prediction of full-length human ORFs for each protein; EE (N); made in house; host or cells: Sf9 (baculovirus)
T2 sequence (Q8IWB7 1-410): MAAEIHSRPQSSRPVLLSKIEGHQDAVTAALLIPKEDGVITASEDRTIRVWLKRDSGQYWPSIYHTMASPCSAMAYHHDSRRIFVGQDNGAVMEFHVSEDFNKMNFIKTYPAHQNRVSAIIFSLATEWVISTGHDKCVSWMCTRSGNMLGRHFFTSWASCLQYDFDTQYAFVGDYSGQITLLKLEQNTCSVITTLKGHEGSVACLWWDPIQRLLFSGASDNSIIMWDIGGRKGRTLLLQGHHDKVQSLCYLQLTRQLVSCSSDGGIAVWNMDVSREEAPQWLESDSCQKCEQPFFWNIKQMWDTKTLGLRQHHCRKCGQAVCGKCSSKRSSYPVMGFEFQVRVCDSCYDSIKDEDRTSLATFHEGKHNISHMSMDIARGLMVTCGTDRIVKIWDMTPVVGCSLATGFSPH
Text: as §1, §2

SR3 = target: T3, SR3 (Homo sapiens, UniProt Q9HBF4); experiment: as above; conditions: all lipids at one concentration, relative affinity
T3 construct: Multiple overlapping clones allowed prediction of full-length human ORFs for each protein; EE (N); made in house; host or cells: Sf9 (baculovirus)
T3 sequence (Q9HBF4 1-777): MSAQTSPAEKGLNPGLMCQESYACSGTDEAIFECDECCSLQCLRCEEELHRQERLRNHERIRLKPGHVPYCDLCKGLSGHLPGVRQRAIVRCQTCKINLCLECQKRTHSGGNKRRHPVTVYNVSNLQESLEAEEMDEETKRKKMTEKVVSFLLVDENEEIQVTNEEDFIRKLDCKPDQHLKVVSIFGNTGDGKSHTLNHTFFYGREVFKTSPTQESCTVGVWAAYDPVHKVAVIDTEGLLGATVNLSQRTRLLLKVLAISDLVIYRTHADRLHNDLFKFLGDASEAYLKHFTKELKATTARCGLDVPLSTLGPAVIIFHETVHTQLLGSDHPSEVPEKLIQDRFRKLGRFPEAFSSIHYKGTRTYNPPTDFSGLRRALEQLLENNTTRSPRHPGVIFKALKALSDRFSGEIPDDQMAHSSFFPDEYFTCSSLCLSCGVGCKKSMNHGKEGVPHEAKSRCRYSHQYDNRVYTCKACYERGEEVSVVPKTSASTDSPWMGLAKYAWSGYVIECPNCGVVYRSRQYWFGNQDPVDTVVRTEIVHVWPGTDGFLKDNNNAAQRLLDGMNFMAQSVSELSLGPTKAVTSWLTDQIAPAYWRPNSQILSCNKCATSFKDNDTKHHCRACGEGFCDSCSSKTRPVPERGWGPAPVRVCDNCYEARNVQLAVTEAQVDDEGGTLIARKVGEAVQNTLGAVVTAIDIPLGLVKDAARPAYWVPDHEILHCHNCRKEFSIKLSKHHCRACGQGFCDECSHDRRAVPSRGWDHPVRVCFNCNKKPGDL
Text: as §1, §2

displacement of ATTP from PtdIns(3,4)P2 beads by free phosphoinositide [1]: displaced most effectively
Structure (SMILES): CCCCCCCCCCCCCCCC(=O)OC[C@H](COP(=O)(O)O[C@H]1[C@H](O)[C@@H](OP(=O)(O)O)[C@H](O)[C@@H](O)[C@H]1O)OC(=O)CCCCCCCCCCCCCCC [PtdIns5P]

displacement of ATTP from PtdIns(3,4)P2 beads by free phosphoinositide [1]: displaced most effectively
Structure (SMILES): CCCCCCCCCCCCCCCC(=O)OC[C@H](COP(=O)(O)OC1[C@H](O)[C@H](O)C(OP(=O)(O)O)[C@H](O)[C@H]1O)OC(=O)CCCCCCCCCCCCCCC (some centres unmarked) [PtdIns4P]

solubility [2]: poor solubility
Structure (SMILES): CCCCCCCCCCCCCCCC(=O)O[C@H](COC(=O)CCCCCCCCCCCN)COP(=O)(O)O [[2], 1-O-(12-Amino)dodecanoyl-2-O-hexadecanoyl-sn-glycer-3-ylphosphate]

displacement of SR1 from PtdIns(3,4)P2 beads by free phosphoinositide (SR1): most effectively
displacement of SR3 from PtdIns(3,4)P2 beads by free phosphoinositide (SR3): most effectively
Structure (SMILES): CCCCCCCCCCCCCCCC(=O)OC[C@H](COP(=O)(O)O[C@@H]1[C@H](O)[C@H](OP(=O)(O)O)[C@@H](O)[C@H](O)[C@H]1O)OC(=O)CCCCCCCCCCCCCCC [PtdIns3P]
